Literature values in patent publication US7867523B2, “Pharmaceutical composition” (priority 2008, dated 2011).

What was measured:
[1] = system: immune cell types present in the blood; details: one gram daily for two weeks, patients
influenza virus = details: administered six hours after infection and continued for twenty-four hours
[2] = acute and long-term, animals, oral

## O=C1O[C@H]([C@@H](O)CO)C(O)=C1O [vitamin C, Ascorbic acid]
[1]
  interferon-gama production by T cells: significantly more
  number of NK cells: increased
  number of T cells: remained the same

## Oc1ccc(C=Cc2cc(O)cc(O)c2)cc1 [resveratrol, Resveratrol]
Influenza virus
  antiviral effect (restricting ability of the virus to replicate): substantial

## Arabinogalactan
[2]
  toxicity: no evidence of toxicity
